Reference: ChEMBL document CHEMBL3046656, “Apoptotic effects of some carbazole derivatives on lung carcinoma and glioma cell lines” (Med Chem Res, 2013)
Values after ≈ are worked out from the molar mass of the structure shown. Active and inactive are the calls of the source. The rule behind the calls is not given here.

Legend:
C6 [1] = assay: Inhibition of nuclear DNA synthesis in Rattus norvegicus (rat) C6 cells assessed as decrease in bromodeoxyuridine incorporation measured during S phase after 24 hr by ELISA; format: functional, cell-based
A549 [2] = assay: Inhibition of nuclear DNA synthesis in Homo sapiens (human) A549 cells assessed as decrease in bromodeoxyuridine incorporation measured during S phase after 24 hr by ELISA; format: functional, cell-based
A549 [3] = assay: Inhibition of nuclear DNA synthesis in Homo sapiens (human) A549 cells assessed as decrease in bromodeoxyuridine incorporation measured during S phase at 15.6 to 62.5 ug/mL after 24 hr by ELISA; format: functional
NIH3T3 = assay: Cytotoxicity against Mus musculus (mouse) NIH/3T3 cells after 24 hr by MTT assay; format: cell-based; conditions: NIH3T3, 24 h
C6 [4] = assay: Cytotoxicity against Rattus norvegicus (rat) C6 cells after 24 hr by MTT assay; format: functional, cell-based; conditions: C6, 24 h
A549 [5] = assay: Cytotoxicity against Homo sapiens (human) A549 cells after 24 hr by MTT assay; format: functional, cell-based; conditions: A549, 24 h
Acetylcholinesterase = Acetylcholinesterase (Electrophorus electricus, UniProt O42275); assay: Inhibition of Electrophorus electricus (electric eel) AChE using acetylthiocholine iodide as substrate incubated for 15 min prior to substrate addition measured after 30 min by Ellman's spectrophotometric method
[6] = target: Acetylcholinesterase (Electrophorus electricus) (UniProt O42275); assay: Inhibition of Electrophorus electricus (electric eel) AChE using acetylthiocholine iodide as substrate at 80 ug/mL incubated for 15 min prior to substrate addition measured after 30 min by Ellman's spectrophotometric method relative to control
C6 [7] = assay: Induction of apoptosis in Rattus norvegicus (rat) C6 cells assessed as late apoptotic cells at IC50 after 24 hr by annexin V FITC/propidium iodide staining-based FACS flow cytometric analysis (reference value: 1.1%); format: functional
C6 [8] = assay: Induction of apoptosis in Rattus norvegicus (rat) C6 cells assessed as early apoptotic cells at IC50 after 24 hr by annexin V FITC/propidium iodide staining-based FACS flow cytometric analysis (reference value: 0.5%); format: functional
A549 [9] = assay: Induction of necrosis in Homo sapiens (human) A549 cells at IC50 after 24 hr by annexin V FITC/propidium iodide staining-based FACS flow cytometric analysis relative to untreated control; format: functional
A549 [10] = assay: Induction of apoptosis in Homo sapiens (human) A549 cells assessed as viable cells at IC50 after 24 hr by annexin V FITC/propidium iodide staining-based FACS flow cytometric analysis (reference value: 96.5%); format: functional
A549 [11] = assay: Induction of apoptosis in Homo sapiens (human) A549 cells assessed as late apoptotic cells at IC50 after 24 hr by annexin V FITC/propidium iodide staining-based FACS flow cytometric analysis (reference value: 0.4%); format: functional
A549 [12] = assay: Induction of apoptosis in Homo sapiens (human) A549 cells assessed as early apoptotic cells at IC50 after 24 hr by annexin V FITC/propidium iodide staining-based FACS flow cytometric analysis (reference value: 0.5%); format: functional
C6 [13] = assay: Inhibition of nuclear DNA synthesis in Rattus norvegicus (rat) C6 cells assessed as decrease in bromodeoxyuridine incorporation measured during S phase at 15.6 to 31.2 ug/mL after 24 hr by ELISA; format: functional
C6 [14] = assay: Induction of necrosis in Rattus norvegicus (rat) C6 cells at IC50 after 24 hr by annexin V FITC/propidium iodide staining-based FACS flow cytometric analysis relative to untreated control; format: functional
C6 [15] = assay: Induction of apoptosis in Rattus norvegicus (rat) C6 cells assessed as viable cells at IC50 after 24 hr by annexin V FITC/propidium iodide staining-based FACS flow cytometric analysis (reference value: 96.4%); format: functional
C6 [16] = assay: Inhibition of nuclear DNA synthesis in Rattus norvegicus (rat) C6 cells assessed as decrease in bromodeoxyuridine incorporation measured during S phase at IC50 after 24 hr by ELISA; format: functional
A549 [17] = assay: Inhibition of nuclear DNA synthesis in Homo sapiens (human) A549 cells assessed as decrease in bromodeoxyuridine incorporation measured during S phase at IC50 after 24 hr by ELISA; format: functional
C6 [18] = assay: Inhibition of nuclear DNA synthesis in Rattus norvegicus (rat) C6 cells assessed as decrease in bromodeoxyuridine incorporation measured during S phase at 3.9 to 7.8 ug/mL after 24 hr by ELISA; format: functional

Sequence of Acetylcholinesterase (Electrophorus electricus) (O42275 24-633 limits assumed): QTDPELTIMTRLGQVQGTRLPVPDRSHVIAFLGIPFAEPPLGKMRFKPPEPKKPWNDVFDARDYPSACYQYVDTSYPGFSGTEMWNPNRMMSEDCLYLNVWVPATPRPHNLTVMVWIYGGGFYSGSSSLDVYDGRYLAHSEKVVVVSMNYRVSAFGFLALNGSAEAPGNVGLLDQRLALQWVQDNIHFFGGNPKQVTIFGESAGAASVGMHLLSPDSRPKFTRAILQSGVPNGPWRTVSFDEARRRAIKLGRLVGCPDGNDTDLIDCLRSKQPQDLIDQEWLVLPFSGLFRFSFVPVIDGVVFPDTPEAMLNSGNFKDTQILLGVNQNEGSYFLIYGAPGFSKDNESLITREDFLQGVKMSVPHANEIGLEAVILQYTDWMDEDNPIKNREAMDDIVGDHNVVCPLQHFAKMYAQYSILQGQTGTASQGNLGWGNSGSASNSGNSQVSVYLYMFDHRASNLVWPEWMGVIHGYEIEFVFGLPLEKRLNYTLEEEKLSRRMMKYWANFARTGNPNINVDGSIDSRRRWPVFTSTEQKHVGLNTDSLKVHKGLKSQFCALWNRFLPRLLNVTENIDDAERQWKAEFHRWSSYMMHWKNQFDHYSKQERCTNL
Sequence of Acetylcholinesterase (O42275 whole entry): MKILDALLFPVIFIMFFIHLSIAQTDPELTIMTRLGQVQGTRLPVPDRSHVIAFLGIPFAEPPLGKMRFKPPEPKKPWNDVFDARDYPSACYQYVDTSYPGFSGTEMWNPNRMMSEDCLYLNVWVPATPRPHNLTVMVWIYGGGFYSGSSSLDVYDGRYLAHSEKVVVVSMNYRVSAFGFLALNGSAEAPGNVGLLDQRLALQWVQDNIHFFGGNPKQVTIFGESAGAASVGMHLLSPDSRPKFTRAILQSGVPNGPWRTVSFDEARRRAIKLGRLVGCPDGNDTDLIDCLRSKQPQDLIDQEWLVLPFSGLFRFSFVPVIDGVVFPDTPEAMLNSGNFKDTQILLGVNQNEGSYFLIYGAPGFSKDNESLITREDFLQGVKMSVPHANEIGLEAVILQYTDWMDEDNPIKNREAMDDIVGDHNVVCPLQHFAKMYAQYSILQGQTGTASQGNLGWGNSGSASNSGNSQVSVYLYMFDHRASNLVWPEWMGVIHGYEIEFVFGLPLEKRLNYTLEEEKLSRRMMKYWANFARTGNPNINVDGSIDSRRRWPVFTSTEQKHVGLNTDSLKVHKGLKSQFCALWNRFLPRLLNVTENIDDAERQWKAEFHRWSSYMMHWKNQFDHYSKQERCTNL

Compound | inhibition (C6 [1]) | inhibition (A549 [2]) | inhibition (A549 [3]) | IC50 (NIH3T3) [µg/mL] | IC50 (C6 [4]) [µg/mL] | IC50 (A549 [5]) [µg/mL] | IC50 (Acetylcholinesterase) [µM] | inhibition [6] [%] | other results
CCn1c2ccccc2c2cc(NC(=O)CSC(=S)N3CCOCC3)ccc21 | Dose-dependent effect | Dose-dependent effect | Active | 127 (≈ 306 µM) | 180 (≈ 435 µM) | 25.7 (≈ 62.1 µM) | > 193 | 15.4 | 
CCn1c2ccccc2c2cc(NC(=O)CSC(=S)N3CCCCC3C)ccc21 (stereo unspecified) | Dose-dependent effect | Dose-dependent effect |  | 257 (≈ 603 µM) | 26.7 (≈ 62.7 µM) | 29.3 (≈ 68.8 µM) | > 188 | 18 | Activity (C6 [7]): 5.1%; Activity (C6 [8]): 6.2%; Activity (A549 [9]): 2.9%; Activity (A549 [10]): 93.3%; Activity (A549 [11]): 1%; Activity (A549 [12]): 2.8%; inhibition (INH) (A549 [3]): 71.2%; inhibition (INH) (C6 [13]): 48.3%; Activity (C6 [14]): 0.3%; Activity (C6 [15]): 88.3%
CCn1c2ccccc2c2cc(NC(=O)CSC(=S)N3CCCCC3)ccc21 | Dose-dependent effect | Dose-dependent effect | Active | 393 (≈ 956 µM) | 198 (≈ 482 µM) | 177 (≈ 429 µM) | > 194 | 11.3 | 
O=C1c2c(O)ccc(O)c2C(=O)c2c(NCCNCCO)ccc(NCCNCCO)c21 [MITOXANTRONE] | Dose-dependent effect | Dose-dependent effect |  |  | 10.9 (≈ 24.5 µM) | 25.3 (≈ 56.9 µM) |  |  | inhibition (INH) (C6 [16]): 84.6%; inhibition (INH) (A549 [17]): 67.3%
CCn1c2ccccc2c2cc(NC(=O)CSC(=S)N3CCN(CCN(C)C)CC3)ccc21 | Dose-dependent effect | Dose-dependent effect |  | 44.3 (≈ 91.6 µM) | 5.9 (≈ 12.2 µM) | 41 (≈ 84.8 µM) | 15.5 | 91.3 | Activity (C6 [7]): 11.5%; Activity (C6 [8]): 83.7%; Activity (A549 [9]): 16.6%; Activity (A549 [10]): 65%; Activity (A549 [11]): 8.1%; Activity (A549 [12]): 10.3%; inhibition (INH) (C6 [18]): 87.1%; inhibition (INH) (A549 [3]): 53.4%; Activity (C6 [14]): 0.2%; Activity (C6 [15]): 4.7%
CCn1c2ccccc2c2cc(NC(=O)CSC(=S)N3CCN(C)CC3)ccc21 | Dose-dependent effect | Dose-dependent effect |  | 48.7 (≈ 114 µM) | 21.3 (≈ 49.9 µM) | 34.3 (≈ 80.4 µM) | > 188 | 21.1 | Activity (C6 [7]): 8.8%; Activity (C6 [8]): 7.3%; Activity (A549 [9]): 3.3%; Activity (A549 [10]): 94.5%; Activity (A549 [11]): 0.4%; Activity (A549 [12]): 1.8%; inhibition (INH) (A549 [3]): 46.6%; inhibition (INH) (C6 [13]): 45.5%; Activity (C6 [14]): 0%; Activity (C6 [15]): 82.3%
CCN1CCN(C(=S)SCC(=O)Nc2ccc3c(c2)c2ccccc2n3CC)CC1 | Dose-dependent effect | Dose-dependent effect | Active | < 3.9 | 20 (≈ 45.4 µM) | 61.7 (≈ 140 µM) | > 182 | 19.6 | 
CCn1c2ccccc2c2cc(NC(=O)CSC(=S)N3CCN(c4ccccc4)CC3)ccc21 | Dose-dependent effect | Dose-dependent effect | Active | 357 (≈ 730 µM) | 143 (≈ 293 µM) | 193 (≈ 395 µM) | > 164 | 26.6 | 
CCn1c2ccccc2c2cc(NC(=O)CSC(=S)N3CCCC3)ccc21 | Dose-dependent effect | Dose-dependent effect | Active | 270 (≈ 679 µM) | 75 (≈ 189 µM) | 193 (≈ 486 µM) | > 201 | 9.05 | 
CCn1c2ccccc2c2cc(NC(=O)CSC(=S)N3CCC(C)CC3)ccc21 | Dose-dependent effect | Dose-dependent effect | Active | > 500 | 167 (≈ 392 µM) | 313 (≈ 736 µM) | > 188 | 23.6 | 
CCn1c2ccccc2c2cc(NC(=O)CSC(=S)N3CCN(Cc4ccccc4)CC3)ccc21 | Dose-dependent effect | Dose-dependent effect | Active | 110 (≈ 218 µM) | 170 (≈ 338 µM) | 107 (≈ 212 µM) | > 159 | 12.8 | 
CCN(CC)C(=S)SCC(=O)Nc1ccc2c(c1)c1ccccc1n2CC | Dose-dependent effect | Dose-dependent effect | Active | 390 (≈ 976 µM) | 64.3 (≈ 161 µM) | 41.7 (≈ 104 µM) | > 200 | 18.3 | 
